# Test results taken from patent publication EP2131831B1, “[…] ACIDS AND POLY-L-LYSINE FOR COMBATING […]-ORGANISMS” (priority 2007, dated 2008).
# What was measured:
# [1] = test system: Escherichia coli ou Staphylococcus aureus; experiment: Visual comparison of bactericidal activity, free fatty acids vs conjugates; type: cell-based; parameters: key to Activité bactéricide sur Escherichia coli ou Staphylococcus aureus de l'acide gras seul: 0: pas d'activité, culture négative; +: correspond à 10^3 colonies; ++: correspond à 10^4 colonies; +++: correspond à 10^6 colonies; ++++: correspond à 10^7 colonies; conditions: visual scale; for Activité bactéricide sur Escherichia coli ou Staphylococcus aureus du conjugué: conjugate of the named fatty acid according to the invention; for Activité bactéricide sur Escherichia coli ou Staphylococcus aureus de l'acide gras seul: free, unbound fatty acid
# Excerpt: Les résultats sont évalués visuellement selon l'échelle suivante : • 0 pas d'activité, culture négative • + correspond à 10^3 colonies • ++ correspond à 10^4 colonies • +++ correspond à 10^6 colonies, et • ++++ correspond à 10^7 colonies.
# Candida albicans = conditions: fatty acid on poly-L-Lysine 5×10^-3M, 50µl, 16 h at 37°
# Excerpt: (§1) Les différents essais ont été réalisés selon le mode opératoire décrit en suivant. Les effets anti-bactéricides et anti-fongiques des solutions testées ont été évalués sur des boîtes contenant des milieux de cultures appropriés à la croissance : • gélose chocolat haemophilus pour la culture de Neisseria, • gélose BCP pour les germes peu exigeants, • gélose Mueller Hinton 2 (MH2-F) pour la majorité des souches bactériennes sauf Neisseria et les streptocoques, • gélose columbia ANC (COL ANC-F) pour les streptocoques, • gélose Sabouraud gentamicine chloramphénicol (SAB GENTA CHL-F) pour les candidas albicans et les levures en général, et • milieu Leowenstein, Coletsos pour Mycobacterium tuberculosis.
# (§2) Les boîtes sont recouvertes par 1ml de solution bactérienne ou mycosique à la concentration de 0,5 à 1 de Mac Farland (lecture au densitomètre) soit 1,5×10^8 bactéries/ml.
# (§3) La boîte est ensuite séchée 15 minutes à 37°, et on applique 2 gouttes (50µl) de chaque solution à tester.
# (§4) La boîte de culture est recouverte après 16 heures d'incubation à 37°.
# (§5) Chaque plage de lyse due à l'activité anti-bactérienne ou anti-fongique des conjugués est mesurée. La lecture de l'effet bactéricide ou antifongique est mesurée en cm^2.
# Klebsiella oxytoca = conditions: fatty acid on poly-L-Lysine 5×10^-3M, 50µl, 16 h at 37°
# Excerpt: as §1, §2, §3, §4, §5
# Proteus Mirabilis = conditions: fatty acid on poly-L-Lysine 5×10^-3M, 50µl, 16 h at 37°
# Excerpt: as §1, §2, §3, §4, §5
# Enterobacter Hafniae = conditions: fatty acid on poly-L-Lysine 5×10^-3M, 50µl, 16 h at 37°
# Excerpt: as §1, §2, §3, §4, §5
# Morganella Morganii = conditions: fatty acid on poly-L-Lysine 5×10^-3M, 50µl, 16 h at 37°
# Excerpt: as §1, §2, §3, §4, §5
# Streptocoque B = conditions: fatty acid on poly-L-Lysine 5×10^-3M, 50µl, 16 h at 37°
# Excerpt: as §1, §2, §3, §4, §5
# Streptocoque D = conditions: fatty acid on poly-L-Lysine 5×10^-3M, 50µl, 16 h at 37°
# Excerpt: as §1, §2, §3, §4, §5
# Staphylococcus aureus = experiment: Lysis zone on agar plate; type: cell-based; conditions: fatty acid on poly-L-Lysine 5×10^-3M, 50µl, 16 h at 37°
# Citrobacter koserii = conditions: Citro bacter koserii; fatty acid on poly-L-Lysine 5×10^-3M; 50µl; 16 h at 37°
# Nesseria = conditions: fatty acid on poly-L-Lysine 5×10^-3M, 50µl, 16 h at 37°
# Escherichia coli = experiment: Lysis zone on agar plate; type: cell-based; conditions: fatty acid on poly-L-Lysine 5×10^-3M, 50µl, 16 h at 37°
# [2] = test system: souche multirésistante de staphylococcus epidermidis; conditions: each component's concentration within the combined solution capryl-poly-L-Lysine-lauryl + pyruvate-poly-L-Lysine
# Pseudomonas aeruginosa = experiment: Lysis zone on agar plate; type: cell-based; conditions: fatty acid on poly-L-Lysine 5×10^-3M, 50µl, 16 h at 37°
compound,measurement,setting,value
CCCCCCCCCC(=O)O [Acide Caprique],Activité bactéricide sur Escherichia coli ou Staphylococcus aureus du conjugué,[1],+++ (correspond à 10^6 colonies)
same,Activité bactéricide sur Escherichia coli ou Staphylococcus aureus de l'acide gras seul,[1],++++ (correspond à 10^7 colonies)
CCCCCC(=O)O [Acide Caproïque],Activité bactéricide sur Escherichia coli ou Staphylococcus aureus du conjugué,[1],+++ (correspond à 10^6 colonies)
same,Activité bactéricide sur Escherichia coli ou Staphylococcus aureus de l'acide gras seul,[1],++ (correspond à 10^4 colonies)
CCCCCCCCCCCC(=O)O [Acide Laurique],Activité bactéricide sur Escherichia coli ou Staphylococcus aureus du conjugué,[1],++ (correspond à 10^4 colonies)
same,Activité bactéricide sur Escherichia coli ou Staphylococcus aureus de l'acide gras seul,[1],++++ (correspond à 10^7 colonies)
CCCCCCCCCCCCCC(=O)O [Acide Myristique],Activité bactéricide sur Escherichia coli ou Staphylococcus aureus du conjugué,[1],+ (correspond à 10^3 colonies)
same,Activité bactéricide sur Escherichia coli ou Staphylococcus aureus de l'acide gras seul,[1],+ (correspond à 10^3 colonies)
CCCCCCCC/C=C\CCCCCCCC(=O)O [Acide Oléique],Activité bactéricide sur Escherichia coli ou Staphylococcus aureus du conjugué,[1],+ (correspond à 10^3 colonies)
same,Activité bactéricide sur Escherichia coli ou Staphylococcus aureus de l'acide gras seul,[1],+ (correspond à 10^3 colonies)
CCCCCCCCCCCCCCCC(=O)O [Acide Palmitique],Activité bactéricide sur Escherichia coli ou Staphylococcus aureus du conjugué,[1],+ (correspond à 10^3 colonies)
same,Activité bactéricide sur Escherichia coli ou Staphylococcus aureus de l'acide gras seul,[1],0
CC(=O)O [C2 = acetate],Activité bactéricide sur Escherichia coli ou Staphylococcus aureus du conjugué,[1],+++ (correspond à 10^6 colonies)
same,Activité bactéricide sur Escherichia coli ou Staphylococcus aureus de l'acide gras seul,[1],0
"CCCCC(=O)O [C5 = acide valérique, acide valérique]",Activité bactéricide sur Escherichia coli ou Staphylococcus aureus du conjugué,[1],+++ (correspond à 10^6 colonies)
same,Activité bactéricide sur Escherichia coli ou Staphylococcus aureus de l'acide gras seul,[1],0
Acide Caprylique,Activité bactéricide sur Escherichia coli ou Staphylococcus aureus du conjugué,[1],+++ (correspond à 10^6 colonies)
same,Activité bactéricide sur Escherichia coli ou Staphylococcus aureus de l'acide gras seul,[1],+++ (correspond à 10^6 colonies)
Acide Palmitoléique,Activité bactéricide sur Escherichia coli ou Staphylococcus aureus du conjugué,[1],+++ (correspond à 10^6 colonies)
same,Activité bactéricide sur Escherichia coli ou Staphylococcus aureus de l'acide gras seul,[1],++ (correspond à 10^4 colonies)
Farnesyl-cystéine,Activité bactéricide sur Escherichia coli ou Staphylococcus aureus du conjugué,[1],++ (correspond à 10^4 colonies)
same,Activité bactéricide sur Escherichia coli ou Staphylococcus aureus de l'acide gras seul,[1],0
acétyl-poly-L-Lysine [Acétyl- poly-L-Lysine],plage de lyse,Candida albicans,"1,97cm^2"
same,plage de lyse,Klebsiella oxytoca,"3,14 cm^2"
same,plage de lyse,Proteus Mirabilis,0 cm^2
same,plage de lyse,Enterobacter Hafniae,"2,71 cm^2"
same,plage de lyse,Morganella Morganii,0 cm^2
same,plage de lyse,Streptocoque B,"3,14 cm^2 colonies"
same,plage de lyse,Streptocoque D,"4,15cm^2"
same,plage de lyse,Staphylococcus aureus,"1,68 cm^2"
same,plage de lyse,Alcalescens Diaspar,"1,4cm^2"
same,plage de lyse,Citrobacter koserii,"1,77 cm^z cm^2"
same,plage de lyse,Nesseria,"2,27cm^2"
same,plage de lyse,Escherichia coli,0 cm^2
butyrate [C4 = butyrate],Activité bactéricide sur Escherichia coli ou Staphylococcus aureus du conjugué,[1],+++ (correspond à 10^6 colonies)
same,Activité bactéricide sur Escherichia coli ou Staphylococcus aureus de l'acide gras seul,[1],0
butyryl-poly-L-Lysine [Butyryl- poly-L-Lysine],plage de lyse,Candida albicans,"2,3 cm^2"
same,plage de lyse,Klebsiella oxytoca,0 cm^2
same,plage de lyse,Proteus Mirabilis,0 cm^2
same,plage de lyse,Enterobacter Hafniae,"2,03 cm^2"
same,plage de lyse,Morganella Morganii,0 cm^2
same,plage de lyse,Streptocoque B,"1,33 cm^2 qqls colonies"
same,plage de lyse,Streptocoque D,0 cm^2
same,plage de lyse,Staphylococcus aureus,"1,82 cm^2"
same,plage de lyse,Alcalescens Diaspar,"0,85 cm^2"
same,plage de lyse,Citrobacter koserii,"1,77 cm^2"
same,plage de lyse,Nesseria,"0,78 cm^2"
same,plage de lyse,Escherichia coli,"2,65 cm^2"
capryl-poly-L-Lysine-lauryl [capryl-poly-Lysine-lauryl],concentration minimale inhibitrice,[2],"< 1,25×10^5 M"
lactyl-Poly-L-Lysine,plage de lyse,Candida albicans,"1,05cm^2"
same,plage de lyse,Klebsiella oxytoca,0 cm^2
same,plage de lyse,Proteus Mirabilis,0 cm^2
same,plage de lyse,Enterobacter Hafniae,"1,44cm^2"
same,plage de lyse,Morganella Morganii,0 cm^2
same,plage de lyse,Streptocoque B,peu sensible
same,plage de lyse,Streptocoque D,"2,01 cm^2"
same,plage de lyse,Staphylococcus aureus,"1,82 cm^2"
same,plage de lyse,Alcalescens Diaspar,"1,53cm^2"
same,plage de lyse,Citrobacter koserii,"1,13 cm^2"
same,plage de lyse,Nesseria,"1,65cm^2"
same,plage de lyse,Escherichia coli,"1,92 cm^2"
same,plage de lyse,Pseudomonas aeruginosa,"2,34 cm^2"
propionate [C3 = propionate],Activité bactéricide sur Escherichia coli ou Staphylococcus aureus du conjugué,[1],+++ (correspond à 10^6 colonies)
same,Activité bactéricide sur Escherichia coli ou Staphylococcus aureus de l'acide gras seul,[1],0
propionyl-poly-L-Lysine [Propionylpoy-L-lysine],plage de lyse,Candida albicans,"2,13cm^2"
same,plage de lyse,Klebsiella oxytoca,0 cm^2
same,plage de lyse,Proteus Mirabilis,0 cm^2
same,plage de lyse,Enterobacter Hafniae,"1,12 cm^2"
same,plage de lyse,Morganella Morganii,0 cm^2
same,plage de lyse,Streptocoque B,0 cm^2
same,plage de lyse,Streptocoque D,0 cm^2
same,plage de lyse,Staphylococcus aureus,"2,3 cm^2"
same,plage de lyse,Alcalescens Diaspar,"1,13cm^2 inhibition partielle"
same,plage de lyse,Citrobacter koserii,0 cm^2
same,plage de lyse,Nesseria,"1,13 cm^2"
same,plage de lyse,Pseudomonas aeruginosa,0 cm^2
pyruvyl-poly-L-Lysine,plage de lyse,Candida albicans,"2,46 cm^2"
same,plage de lyse,Klebsiella oxytoca,"1,33 cm^2"
same,plage de lyse,Proteus Mirabilis,0 cm^2
same,plage de lyse,Enterobacter Hafniae,"2,27 cm^2"
same,plage de lyse,Morganella Morganii,0 cm^2
same,plage de lyse,Streptocoque B,"1,77cm^2 qqls colonies"
same,plage de lyse,Streptocoque D,"2,27 cm^2"
same,plage de lyse,Staphylococcus aureus,"2,13 cm^2"
same,concentration minimale inhibitrice,[2],"< 1,25×10^4 M"
same,plage de lyse,Alcalescens Diaspar,"1,53cm^2"
same,plage de lyse,Citrobacter koserii,"1,54 cm^2"
same,plage de lyse,Nesseria,"2,01cm^2"
same,plage de lyse,Escherichia coli,"2,09 cm^2"
same,plage de lyse,Pseudomonas aeruginosa,"1,32 cm^2"
